The test system of this experiment is Toxoplasma gondii growth in host cells, no IFN-gamma. Briefly: compound activity on host-cell Toxoplasma growth – dose response (AID 1259420).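 Also: host cells were HeLa; final incubation lasted 72 hours.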

“And” between values parts separate entries of the source, which are not always exact repeats. Equal values may be shown once. Results filed as inconclusive are left out. The source made the active and inactive calls. No rule for the calls is given here.

In the case of `Cc1ccc(S(=O)(=O)N2CC[C@@H]3[C@H]2c2cc(-c4ccccc4F)ccc2N(C)[C@H]3CO)cc1`, the AC50 was 20.4 µM.

Regarding `c1ccc2c(Oc3nc(Nc4ccc(N5CCOCC5)cc4)c4ncn(C5CCCCC5)c4n3)cccc2c1`, the AC50 is 12.7 µM.

As for `O=c1c(O)c(-c2ccc(O)c(O)c2)oc2cc(O)cc(O)c12`, the AC50 was 15.8 µM.

`COCCn1cc2c(n1)C(CNC(=O)CS(C)(=O)=O)OCC2` (configuration not stated): the AC50 was > 39 µM (inactive).

Take `Cc1sc2ncnc(Oc3ccc(OCc4ccccc4)cc3)c2c1C`: the AC50 is 7.16 µM and 9.76 µM.

Regarding `CSCc1noc(CN2CCCC3(C2)CN(C)C(=O)O3)n1` (configuration not stated), the AC50 was > 39 µM (inactive).

Turning to `Cc1cc(C(=O)Nc2ccc3c(c2)C(=O)N(C)[C@H]2CC[C@H](CC(=O)NCc4ccc(-c5ccccc5)cc4)O[C@H]2CO3)no1`, the AC50 is 14 µM.

For `COc1ccc(NC(=O)N2CCCCN3[C@H](C2)[C@@H](c2ccc(-c4ccccc4F)cc2)[C@@H]3CO)cc1`, the AC50 was 35.8 µM.

`O=C(NC1CCC12CCN(Cc1ccoc1)CC2)c1cnccn1` (configuration not stated): the AC50 was > 39 µM (inactive).

Regarding `COc1ccc(C#Cc2ccc([C@@H]3[C@H]4CN(C(=O)NC(C)C)CC(=O)N4[C@H]3CO)cc2)cc1`, the AC50 is > 39 µM (inactive).

Take `Cc1ccc(S(=O)(=O)N2CC[C@H]3[C@@H](CO)N(C)c4ccc(-c5ccccc5F)cc4[C@H]32)cc1`: the AC50 was > 20 µM (inactive).

For the compound `O=C(Nc1ccccc1F)N1C[C@@H]2N[C@H](C1)C2c1ccc(/C=C/c2ccccc2)cc1` (some centres not stated), the half-maximal activity concentration (AC50) was 18.6 µM.

For the compound `COc1ccccc1-c1ccc(C2[C@H]3CNC[C@@H]2N3S(=O)(=O)c2ccc(F)cc2)cc1` (some centres not stated), the AC50 was > 20 µM (inactive).

In the case of `CCN(C)C(=O)c1ccc2ccc(N(C)Cc3ccc(OC)cc3)n2c1`, the AC50 was 19.2 µM.

Consider `N#C[C@@H]1[C@@H](c2ccc(C#Cc3cccnc3)cc2)[C@@H](CO)N1C(=O)NC1CCCCC1`, for which the AC50 was > 39 µM (inactive).

On to `O=S1(=O)c2ccccc2O[C@H]2CCN(Cc3ccc(Cl)cc3)CC[C@H]2N1CC1CC1`, for which the AC50 was 22.5 µM.

Consider `O=C(c1cccc(F)c1)N1CCCCN2[C@H](CO)[C@H](c3ccc(C#CC4(O)CCCC4)cc3)[C@H]2C1`, for which the AC50 was 32.1 µM.

As for `COC(=O)[C@@H]1C[C@@H](N(C)C)CN1S(=O)(=O)c1c(C)ccc2nsnc12`, the AC50 is > 39 µM (inactive).

On to `CN1c2ccc(C#Cc3cccnc3)cc2[C@@H]2[C@@H](CCN2C(=O)c2cccc(F)c2)[C@@H]1CO`, for which the AC50 is 30.3 µM.

With `Cc1ccccc1C(=O)N1CCC(N2CCOCC2)CC1C(=O)O` (configuration not stated), the AC50 was > 39 µM (inactive).

`CCCNC(=O)N1[C@H](C#N)[C@H](c2ccc(-c3ccccc3F)cc2)[C@@H]1CO`: the AC50 is 4.65 µM.

Turning to `CN1CCC2(C=C(C(=O)N3CCCC3)c3ccccc32)CC1`, the AC50 was > 39 µM (inactive).

For the compound `O=C(Nc1cccnc1)c1cc(-c2cnc(-c3ccccc3)nc2)cn1CC1CC1`, the AC50 was 27.9 µM and 19.8 µM.

Turning to `N#Cc1ccc(-c2ccc3c(c2)[C@H]2[C@H](CCN2C(=O)C2CCCCC2)[C@H](CO)N3)cc1`, the concentration at half-maximal activity (AC50) is 16.9 µM.

For `CC1CCCCN1CCNc1nc(-c2ccc(Cl)cc2)nc2ccccc12` (configuration not stated), the AC50 was 11.8 µM.

In the case of `O=C(C[C@H]1C[C@@H]2CN(Cc3ccccc3)C[C@H]2O1)N1CCCCO1`, the AC50 is > 39 µM (inactive).

Regarding `N#Cc1cccc(-c2ccc3c(c2)[C@@H]2[C@@H](CCN2S(=O)(=O)c2ccc(F)cc2)[C@@H](CO)N3)c1`, the AC50 was 14.5 µM.

Regarding `COc1cccc(-c2ccc(C3[C@H]4CNC[C@@H]3N4Cc3nccs3)cc2)c1` (some centres not stated), the AC50 is 18.7 µM.

For `Cc1cc(C)n(C)c(=O)c1C(=O)N1CCOC(C(F)(F)F)C1` (configuration not stated), the AC50 was > 39 µM (inactive).

In the case of `COc1cccc(NC(=O)N2CC(=O)N3[C@H](CO)[C@H](c4ccc(C#CCC5CCCC5)cc4)[C@H]3C2)c1`, the AC50 was 13.9 µM and 16.2 µM.

Turning to `COc1cccc(-c2ccc([C@@H]3[C@H]4CN(C(=O)c5cccnc5)CC(=O)N4[C@H]3CO)cc2)c1`, the AC50 is > 39 µM (inactive).

Turning to `CN(C)C(=O)c1cccc(-c2ccc3c(c2)[C@@H]2[C@@H](CCN2C(=O)Cc2ccccc2)[C@@H](CO)N3)c1`, the AC50 was 21.7 µM.

In the case of `Cc1ccccc1-c1ccc(C2[C@@H]3CN(C(=O)c4ccc(F)cc4)C[C@H]2N3)cc1` (some centres not stated), the AC50 was > 42 µM (inactive).

With `O=C(c1ccc(F)cc1)N1CC(=O)N2[C@H](C1)[C@@H](c1ccc(C#CCC3CCCC3)cc1)[C@@H]2CO`, the AC50 was 14.3 µM.

As to `CCCNC(=O)N1C[C@@H]2N[C@H](C1)C2c1ccc(-c2ccc(OC)cc2)cc1` (some centres not stated), the AC50 is 14.2 µM.

Consider `CCOCCCNC(=O)c1ccc2ccc(N3CCN(CC4CC4)CC3)n2c1`, for which the AC50 is > 39 µM (inactive).

With `COc1ccc(-c2nc3c(s2)CN(S(=O)(=O)c2ccccc2C)CC3)cc1`, the AC50 is 8.96 µM.

For the compound `COc1cc2c(cc1O)CC[C@@H]1[C@@H]2CC[C@]2(C)[C@@H](O)CC[C@@H]12`, the AC50 was 11.2 µM and 5.79 µM.

`CO[C@@H]1[C@@H](OC(N)=O)[C@@H](O)[C@H](Oc2ccc3c(O)c(NC(=O)c4ccc(O)c(CC=C(C)C)c4)c(=O)oc3c2C)OC1(C)C`: the AC50 was 18 µM.

For the compound `COc1cccc(NC(=O)N2CC(=O)N3[C@H](C2)[C@@H](c2ccc(C#CCC4CCCC4)cc2)[C@@H]3CO)c1`, the AC50 was 15.8 µM and 22.4 µM.

For the compound `CCc1ccc(S(=O)(=O)N2CCC3(CCCN(Cc4c(C)noc4C)C3)C2)cc1` (configuration not stated), the AC50 was 35.4 µM.

For `C[C@H]1CN([C@@H](C)CO)C(=O)c2cccc(NC(=O)c3ccc(-c4nccs4)cc3)c2O[C@@H]1CN(C)C(=O)Nc1ccc(C(F)(F)F)cc1`, the AC50 was > 42 µM (inactive).

For `O=C(Cc1cccnc1)N1CC(=O)N2[C@H](CO)[C@@H](c3ccc(C#CC4CCCCC4)cc3)[C@H]2C1`, the AC50 was > 20 µM (inactive).

In the case of `O=S(=O)(c1ccccc1)N(CC(F)(F)F)c1ccc(C(O)(C(F)(F)F)C(F)(F)F)cc1`, the AC50 was 14.2 µM.

Consider `O=C(Cc1ccc(Cl)cc1)N1CC2(CCN(Cc3ccc(C(F)(F)F)cc3)CC2)C1`, for which the AC50 is > 39 µM (inactive).

Consider `Cc1cccc(NC2COC3(CCN(C(=O)c4ccsc4)C3)C2)c1` (configuration not stated), for which the AC50 was 28.1 µM.

Regarding `CC(C)N1CCC2(CC1)CC(COCC1CC1)N(c1ncccn1)C2` (configuration not stated), the half-maximal activity concentration (AC50) was 35.9 µM.

In the case of `COc1cccc(NC(=O)N2CC(=O)N3[C@H](CO)[C@@H](c4ccc(C#CCC5CCCC5)cc4)[C@@H]3C2)c1`, the AC50 is 14.4 µM and 13.4 µM.

Take `CCCCCCCCCCCCCCCC[N+](C)(C)C`: the half-maximal activity concentration (AC50) was 15.3 µM.

Turning to `OC[C@@H]1Nc2ccc(-c3cccc(F)c3)cc2[C@H]2[C@@H]1CCN2Cc1ccc(F)cc1`, the AC50 was > 20 µM (inactive).

Turning to `O=C(Cc1ccccc1)N1CCC2(CC1)CC(N1CCCC1)CO2` (configuration not stated), the AC50 was > 39 µM (inactive).

Consider `O=C(c1ccc(F)cc1)N1CC(=O)N2[C@H](C1)[C@H](c1ccc(C#CCC3CCCC3)cc1)[C@@H]2CO`, for which the AC50 is 16.9 µM.

On to `N#C[C@@H]1[C@@H](c2ccc(-c3cccc(F)c3)cc2)[C@H](CO)N1C(=O)NC1CCCC1`, for which the AC50 is > 20 µM (inactive).

For `COc1cccc(-c2nc3c(s2)CN(S(=O)(=O)c2ccc(C)cc2)CC3)c1`, the AC50 is 34 µM.

Take `Cc1ccccc1S(=O)(=O)N1C[C@@H]2N[C@H](C1)C2c1ccc(-c2cccc(C#N)c2)cc1` (some centres not stated): the AC50 was 13.3 µM and 14.8 µM and 31.3 µM.

`COc1ccccc1NC(=O)N1CCCCN2[C@H](CO)[C@H](c3ccc(-c4cccc(C#N)c4)cc3)[C@@H]2C1`: the AC50 is 33.7 µM.

`O=C(Nc1cccc(F)c1)N1CCCCN2[C@@H](CO)[C@H](c3ccc(C#Cc4cccnc4)cc3)[C@@H]2C1`: the AC50 was 3.04 µM.

`COc1cccc(-c2ccc(C3[C@@H]4CN(S(=O)(=O)Cc5ccccc5)C[C@H]3N4)cc2)c1` (some centres not stated): the AC50 was 16.9 µM and 13.1 µM.

Consider `Cc1cc(Nc2cc(N3CCN(C)CC3)nc(Sc3ccc(NC(=O)C4CC4)cc3)n2)n[nH]1`, for which the AC50 is 18.7 µM.

As for `CCCC(Nc1nc(-c2cccnc2)nc2c1cnn2C)c1cccs1` (configuration not stated), the AC50 is > 39 µM (inactive).

Consider `O=C(NCCN1CCCC1)[C@H]1[C@H](CO)[C@H]2Cn3c(cccc3=O)[C@H]2N1Cc1ccccn1`, for which the AC50 was > 39 µM (inactive).

As for `CN(C[C@H]1N[C@@H](CO)[C@@H]1c1ccc(C2=CCCC2)cc1)C(=O)c1cccc(F)c1`, the concentration at half-maximal activity (AC50) was 3.41 µM and 4.45 µM.

With `CC(C)(C)CC(C)(C)c1ccc(OCCOCC[N+](C)(C)Cc2ccccc2)cc1`, the AC50 was 14.1 µM.

In the case of `O=C(c1ccc(F)cc1)N1CC(=O)N2[C@@H](CO)[C@@H](c3ccc(C#CCC4CCCC4)cc3)[C@@H]2C1`, the AC50 was 21.2 µM.

Turning to `COc1ccc(NC(=O)N2CC[C@@H]3[C@H]2c2cc(C4=CCCCC4)ccc2N(C)[C@H]3CO)cc1`, the AC50 was 17.8 µM.

Regarding `Cn1cccc1C(=O)N1CCC2(CC1)CN(CC1CC1)C(=O)CO2`, the AC50 was 36.8 µM.

Regarding `COc1cccc(S(=O)(=O)N2CCCCN3[C@H](CO)[C@H](c4ccc(-c5ccccc5)cc4)[C@H]3C2)c1`, the AC50 was 13.1 µM.

On to `CCCCc1ccc(Nc2ncnc3c2cnn3-c2ccc(C)cc2C)cc1`, for which the AC50 was 11.6 µM.

Regarding `C[C@@H]1CN([C@@H](C)CO)C(=O)c2cccc(NC(=O)NC3CCCCC3)c2O[C@@H]1CN(C)Cc1ccc(C(F)(F)F)cc1`, the AC50 is > 39 µM (inactive).

Consider `CC(C)CC#Cc1ccc([C@@H]2[C@@H](CO)N3C(=O)CN(C(=O)Nc4cc(F)ccc4F)C[C@@H]23)cc1`, for which the AC50 is 17.1 µM.

For the compound `O=S(=O)(c1ccccc1F)N1CCC(c2nc3ccc(-c4ccncc4)cn3n2)CC1`, the AC50 was > 39 µM (inactive).

For `N#Cc1ccc(-c2ccc(C3[C@@H]4CN(C(=O)C5CCCCC5)C[C@H]3N4)cc2)cc1` (some centres not stated), the half-maximal activity concentration (AC50) is 16.7 µM.

Take `OC[C@H]1[C@@H](c2ccc(C#Cc3ccccc3F)cc2)[C@@H]2CN(CC3CCOCC3)CCCCN12`: the AC50 was 14.8 µM.

For `COc1ccccc1NC(=O)N1C[C@H](O)COC[C@@H]2O[C@@H](CC(=O)N3CCC(Cc4ccccc4)CC3)CC[C@H]21`, the AC50 was > 39 µM (inactive).

Regarding `COc1ccccc1NC(=O)N1C[C@@H]2N[C@H](C1)C2c1ccc(/C=C/c2ccccc2)cc1` (some centres not stated), the AC50 was 6.68 µM.

As for `COCC#Cc1ccc([C@@H]2[C@H]3CN(C(=O)C4CCCCC4)CC(=O)N3[C@H]2CO)cc1`, the AC50 is > 39 µM (inactive).

In the case of `CC(C)C#Cc1ccc([C@@H]2[C@H]3CN(C(=O)NC4CCCC4)CC(=O)N3[C@H]2CO)cc1`, the AC50 was > 39 µM (inactive).

In general, AC50 refers to the concentration giving half of the maximal activity seen.

These data come from PubChem BioAssay AID1259420 (Broad Institute, 2018).
